Source: US20260028552A1, “Cationic Surfactants with Improved pH Stability and Their Use” (Locus Solutions IPCo, LLC, priority 2022, published 2026)
“Also recorded” adds a separate entry of the source.

Columns and labels:
[1] = system: Staphylococcus aureus (G+); experiment: Microbial kill study (log reduction), Staphylococcus aureus; assay type: cell-based; settings: for Log Reduction S. aureus (G+) 100 ppm 0 min / Log Reduction S. aureus (G+) 100 ppm 2 min / Log Reduction S. aureus (G+) 100 ppm 5 min / Activity Reduction S. aureus (G+) 100 ppm 5 min: pH 7, 100 ppm; for Activity Reduction S. aureus (G+) 100 ppm 5 min: day 4 accelerated stability vs day 0
Protocol: (§1) Studies were conducted to determine the antimicrobial capabilities of cationic arginine derivatized surfactants produced according to embodiments of the subject invention.
(§2) The test organisms were a mixture of Gram-negative and Gram-positive organisms, which served to validate the breadth of the spectrum of control and the utility of the technology for common pathogens of public health concern: Pseudomonas aeruginosa (Gram-negative), Staphylococcus aureus (Gram-positive) and Salmonella entericus (Gram-negative).
(§3) Test bacteria were grown at 32° C. for 24-48 hours in tryptic soy broth, then plated at a starting concentration of 10^7. PBS was used for dilution to achieve the desired cell concentration.
(§4) A stock solution of each antimicrobial treatment was created in water, which was then used to create each desired dilution for treatment: 25, 50, 200, 400, 500, 750, 1,000, 1,500, 2,000 and 4,000 ppm, in an appropriate volume of buffer. Buffers included 100 mM of citric acid, ammonium HCL, PBS or sodium bicarbonate.
(§5) The created cell dilution of 10^7 CFU/mL was mixed with either 100 uL to 900 uL of antimicrobial at the appropriate PPM, or 1-9 mL of antimicrobial at the appropriate PPM. The final concentration of the organism was […] once mixed with the antimicrobial.
(§6) The moment the organism was added to the antimicrobial, the timer was started for the desired time period (0, 2, 5, 6 or 10 min). At the end of the timer, the antimicrobial was neutralized, and dilutions were then plated onto TSA plates and incubated for 24-48 hours at 32° C.
(§7) The negative control comprised 0.1 mL from the organism stock plated onto a TSA plate. For the positive control a serial dilution was set up with a starting concentration of 400 PPM quaternary ammonium compound (QAC) and organism. Dilutions were plated at 10^2, 10^3 and 10^4 CFU/mL.
(§8) After 24 to 48 hours of incubation, plates were removed from the incubator and colony numbers were counted.
(§9) The below scale is commonly used in determining a compound's efficacy, where a greater than or equal to 6-fold logarithmic (≥6 log) reduction in less than 10 minutes is needed for disinfection.
(§10) Table 3 summarizes surface tension reduction at 1000 ppm and log reduction of S. aureus and S. enterica at 0 and 10 min. (200 ppm) for four categories of cationic amino alcohol surfactants according to embodiments of the subject invention.
(§11) Tables 4-5 summarize the pH stability over 4 days for a C12 cationic amino alcohol surfactant according to embodiments of the subject invention, LRO (RO), compared with LAE (RE), where LRO was produced through the coupling of a lauroyl chloride substrate and arginine ethyl ester. Log reductions were measured according to the procedures described above in Example 2.

Salmonella enterica (G−) = experiment: Microbial kill study (log reduction), Salmonella enterica; assay type: cell-based; settings: for Log Reduction S. enterica (G−) 100 ppm 0 min / Log Reduction S. enterica (G−) 100 ppm 2 min / Log Reduction S. enterica (G−) 100 ppm 5 min / Activity Reduction S. enterica (G−) 100 ppm 5 min: pH 7, 100 ppm; for Activity Reduction S. enterica (G−) 100 ppm 5 min: day 4 accelerated stability vs day 0
Protocol: as §1, §2, §3, §4, §5, §6, §7, §8, §9, §10, §11

[2] = base-catalyzed hydrolysis of the ester, lactam formation; listed as LAE; cited from earlier work
[3] = Surface tension reduction at 1000 ppm; assay type: physicochemical
Protocol: Table 2 summarizes surface tension reduction at 1000 ppm and log reduction of P. aeruginosa at 0 and 10 min. (200 ppm) for two C12 cationic amino alcohol surfactants according to embodiments of the subject invention, LRO (R) and LKO (K), where LRO was produced through the coupling of a lauroyl chloride substrate and arginine ethyl ester and LKO was produced through the coupling of a lauroyl chloride substrate and lysine ethyl ester.
as §10

[4] = system: Pseudomonas aeruginosa (G−); experiment: Microbial kill study (log reduction), Pseudomonas aeruginosa; assay type: cell-based; settings: P. aeruginosa
Protocol: as §1, §2, §3, §4
The created cell dilution of 10^7 CFU/mL was mixed with either 100 uL to 900 uL of antimicrobial at the appropriate PPM, or 1-9 mL of antimicrobial at the appropriate PPM. The final concentration of the organism was […] once mixed with the antimicrobial. […]
After 24 to 48 hours of incubation, plates were removed from the incubator and colony numbers were counted. […]

| Molecule | Log Reduction S. aureus (G+) 100 ppm 0 min ([1]; Day 0 Stability) [log] | Log Reduction S. aureus (G+) 100 ppm 2 min ([1]; Day 0 Stability) [log] | Log Reduction S. aureus (G+) 100 ppm 5 min ([1]; Day 0 Stability) [log] | Log Reduction S. aureus (G+) 100 ppm 0 min ([1]; Day 4 Accelerated Stability) [log] | Log Reduction S. aureus (G+) 100 ppm 2 min ([1]; Day 4 Accelerated Stability) [log] | Log Reduction S. aureus (G+) 100 ppm 5 min ([1]; Day 4 Accelerated Stability) [log] | Activity Reduction S. aureus (G+) 100 ppm 5 min [1] [%] | Log Reduction S. enterica (G−) 100 ppm 0 min (Salmonella enterica (G−); Day 0 Stability) [log] | Log Reduction S. enterica (G−) 100 ppm 2 min (Salmonella enterica (G−); Day 0 Stability) [log] | Log Reduction S. enterica (G−) 100 ppm 5 min (Salmonella enterica (G−); Day 0 Stability) [log] | Log Reduction S. enterica (G−) 100 ppm 0 min (Salmonella enterica (G−); Day 4 Accelerated Stability) [log] | Log Reduction S. enterica (G−) 100 ppm 2 min (Salmonella enterica (G−); Day 4 Accelerated Stability) [log] | Log Reduction S. enterica (G−) 100 ppm 5 min (Salmonella enterica (G−); Day 4 Accelerated Stability) [log] | Activity Reduction S. enterica (G−) 100 ppm 5 min (Salmonella enterica (G−)) [%] | Surface Tension 1000 ppm ([3]; 1000 ppm (Table 3)) [mN/m] | Log Reduction S. aureus (G+) 200 ppm 0 min [1] [log] | Log Reduction S. aureus (G+) 200 ppm 10 min [1] [log] | Log Reduction S. enterica (G−) 200 ppm 0 min (Salmonella enterica (G−)) [log] | Log Reduction S. enterica (G−) 200 ppm 10 min (Salmonella enterica (G−)) [log] | further results |
| --- | --- | --- | --- | --- | --- | --- | --- | --- | --- | --- | --- | --- | --- | --- | --- | --- | --- | --- | --- | --- |
| CCCCCCCCCCCC(=O)N[C@@H](CCCN=C(N)N)C(=O)OCC [C12 R E, Ethyl lauroyl arginate, reference compound] | 0.00 | 6.53 | 6.53 | 0.00 | 0.93 | 1.14 | 82.54 | 0.00 | 6.42 | 6.42 | 0.00 | 0.00 | 0.00 | 100.00 | – | – | – | – | – | pH stability [2]: decreases at higher pH; also recorded: unstable at pH 7 or above |
| CCCCCCCCCCCC(=O)NC(CO)CCCNC(=N)N (stereo not drawn) [C12 R O, lauryl argininol alcohol] | 0.00 | 2.17 | 6.53 | 0.00 | 0.76 | 6.53 | 0.00 | 0.00 | 1.32 | 2.36 | 0.00 | 0.00 | 0.79 | 66.53 | 23.75 | 0.00 | 6.24 | 0.00 | 6.20 | Surface Tension 1000 ppm ([3]; 1000 ppm (Table 2)): 23.75 mN/m; Log Reduction 200 ppm 0 min ([4]; 0 min): 1.85 log; Log Reduction 200 ppm 10 min ([4]; 10 min): 6.25 log |
| linear sophorolipid argininol amide [SLP R O] | – | – | – | – | – | – | – | – | – | – | – | – | – | – | 41.89 | 0.00 | 2.23 | 0.00 | 0.00 | – |
